Here are results for 94 compounds from PubChem BioAssay AID1417 (Emory University Molecular Libraries Screening Center, 2008).

Chain of Induced myeloid leukemia cell differentiation protein Mcl-1 (Homo sapiens) (Q07820 whole entry, looked up): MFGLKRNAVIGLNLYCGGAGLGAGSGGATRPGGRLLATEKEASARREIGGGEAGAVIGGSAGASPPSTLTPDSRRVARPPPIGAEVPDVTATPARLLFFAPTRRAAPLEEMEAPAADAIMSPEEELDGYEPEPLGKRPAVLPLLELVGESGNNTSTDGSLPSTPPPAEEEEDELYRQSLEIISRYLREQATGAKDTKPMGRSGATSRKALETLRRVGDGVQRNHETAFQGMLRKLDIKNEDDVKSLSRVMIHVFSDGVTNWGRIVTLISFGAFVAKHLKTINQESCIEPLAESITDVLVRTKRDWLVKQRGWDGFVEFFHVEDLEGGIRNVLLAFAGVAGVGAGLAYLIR

This test concerns the target Induced myeloid leukemia cell differentiation protein Mcl-1 (Homo sapiens) (UniProt Q07820). Put plainly: Mcl-1/Noxa binding inhibitor potency, dose response, biochemical, TR-FRET (AID 1417). To be noted: Mcl-1/Noxa peptide interaction, cell-free TR-FRET (terbium/rhodamine), 2 h; measured here: absolute IC50.
Broadly, the IC50 is the concentration needed to halve the response being measured. Read a low IC50 as higher potency. Compound `CN(C)c1ccc(N=c2sc3ccccc3n2C)cc1` had an IC50 of less than 0.4 µM.

`COc1cc(/C=N\Nc2nc(-c3cccs3)c(NC(C)=O)s2)ccc1O` came in with an IC50 of less than 0.4 µM.

For the compound `CN(C(=O)COC(=O)c1cc(-c2ccco2)nc2ccccc12)C1CCS(=O)(=O)C1` (centres undefined), the IC50 is less than 0.4 µM.

`COc1ccc(-c2csc(NC(=O)CSc3nc(C)nc4sc(C(=O)O)c(C)c34)n2)cc1`: the IC50 worked out at 8.23 µM.

The compound `O=C1OCC2OC(O)C(O)C(O)C2OC(=O)c2cc(O)c(O)c(O)c2-c2c(O)c(O)c3oc(=O)c4c(c(O)c(O)c5oc(=O)c2c3c54)-c2c1cc(O)c(O)c2O` (centres undefined) showed an IC50 of less than 0.4 µM.

Consider `COc1ccc(CC(=O)n2[nH]c(=O)ccc2=O)cc1OC`, for which the IC50 was less than 0.4 µM.

Compound `CN(C)c1ccc(NC(=O)/C=C/c2ccccc2Cl)cc1` registered an IC50 of less than 0.4 µM.

For `CCN(CC)c1ccc(NC(=O)CCNC(=O)c2ccco2)cc1`, the half-inhibitory concentration (IC50) is greater than 54 µM.

As for `O=c1/c(=C\c2cc([N+](=O)[O-])cc([N+](=O)[O-])c2O)sc2nc3ccccc3n12`, the IC50 was less than 0.4 µM.

As to `O=C(CCO)c1ccc(O)cc1`, the IC50 came out at 3.19 µM.

In turn, `O=C(OCC(=O)N1CCN(C(=O)c2ccco2)CC1)c1cc(-c2ccco2)nc2ccccc12` showed an IC50 of 1.93 µM.

As to `O=C1N/C(=N/Nc2ccccc2)S/C1=C\c1ccccc1`, the IC50 was greater than 54 µM.

Regarding `O=C1/C(=C/C=C/c2ccco2)SC(=S)N1NS(=O)(=O)c1ccccc1`, the IC50 turned out to be 1.41 µM.

In turn, `CCOc1ccc(C2C3=C(Nc4nc(N)[nH]c(=O)c42)c2ccccc2C3=O)cc1` (centres undefined) showed an IC50 of 23.3 µM.

`CN(C)c1ccc(Nc2nc(N)c([N+](=O)[O-])c(N3CCOCC3)n2)cc1` displayed an IC50 of less than 0.4 µM.

On to `COc1ccc(-c2nn(CCC(=O)O)cc2/C=C2\SC(N)=NC2=O)cc1OC`, for which the IC50 is 4.36 µM.

In turn, `COc1ccc(C(=O)Nc2ccc(N3CCCC3)cc2)cc1` registered an IC50 of 2.65 µM.

`O=C(O)c1ccc(N/N=C/c2ccc(-c3cc(Cl)ccc3Cl)o2)cc1` gave an IC50 of 1.84 µM.

`CN(C)S(=O)(=O)c1cccc(-c2nn(-c3ccccc3)cc2/C=C2\SC(=S)N(CC(=O)O)C2=O)c1` registered an IC50 of 4.28 µM.

In turn, `Cc1cc(/C=N/n2c(COc3ccccc3C)nc3ccccc3c2=O)c(O)c([N+](=O)[O-])c1` returned an IC50 of 4.86 µM.

Compound `CCc1ccc(S(=O)(=O)/N=C2/C=C(Sc3ncn[nH]3)C(=O)c3ccccc32)cc1` gave an IC50 of less than 0.4 µM.

As for `COc1ccc(-n2cccc2/C=C2\C(=N)N3N=C(c4ccco4)SC3=NC2=O)cc1`, the IC50 was less than 0.4 µM.

In turn, `Cc1ccc(S(=O)(=O)/N=C2/C=C(Sc3ncn[nH]3)C(=O)c3ccccc32)cc1` returned an IC50 of less than 0.4 µM.

`O=C(CSc1cccc[n+]1[O-])Nc1cc2c(cc1Cl)C(=O)c1ccccc1C2=O` registered an IC50 of 3.74 µM.

Turning to `O=C(O)Cc1c[nH]c2cccc(O)c12`, the IC50 was determined as 0.81 µM.

With `CCOc1cc(/C=N/NC(=O)c2ccc(-c3csc(Nc4ccc(C)cc4)n3)cc2)ccc1OCC(=O)O`, the IC50 came to 1.07 µM.

For the compound `COc1ccc(NC(=O)c2ccccc2N(Cc2ccccc2)S(C)(=O)=O)cc1`, the IC50 was greater than 54 µM.

`CCC1CCCCN1S(=O)(=O)c1ccc(S(=O)(=O)N(Cc2ccccn2)CC2CCCO2)cc1` (centres undefined) returned a concentration for half-maximal inhibition (IC50) greater than 54 µM.

`CC1CC1C(=O)OCC(=O)Nc1ccc2[nH]c(=O)[nH]c2c1` (centres undefined) returned an IC50 of 4.38 µM.

In turn, `O=C(NC1CCCCC1)c1sc(=S)n2c1[nH]c(=O)c1ccccc12` returned an IC50 of 15.9 µM.

Regarding `CC(=O)c1sc2nc(-c3cccs3)ccc2c1N`, the half-inhibitory concentration (IC50) is greater than 54 µM.

`Nc1nc2c(c(=O)[nH]1)C(c1cccc3ccccc13)C1=C(N2)c2ccccc2C1=O` (centres undefined) yielded an IC50 of 4.17 µM.

As to `COc1cc(/C=C2/SC(=O)NC2=O)ccc1Oc1ccc([N+](=O)[O-])cc1[N+](=O)[O-]`, the IC50 was determined as 4.2 µM.

`O=C(Nc1cccc(Cl)c1)Nc1nnc(-c2ccncc2)s1` returned an IC50 of 4.03 µM.

Compound `CSc1cnn(Cc2ccccc2)c(=O)c1SCc1ccccc1` registered an IC50 greater than 54 µM.

The compound `O=C1NC(=S)N(c2ccccc2F)C(=O)/C1=C\c1cccs1` returned an IC50 of 3.77 µM.

Compound `COc1cc(C2C3=C(Nc4nc(N)[nH]c(=O)c42)c2ccccc2C3=O)ccc1O` (centres undefined) had an IC50 of 2.28 µM.

As for `Nc1nc(=S)c2ncn(C3OC(CO)C(O)C3O)c2[nH]1` (centres undefined), the half-inhibitory concentration (IC50) is 9.52 µM.

As to `O=C(Nc1ccc2nc(-c3ccco3)c(-c3ccco3)nc2c1)NC1CC1`, the IC50 turned out to be 1.33 µM.

`CCOc1cc(/C=C2\C(=O)N(c3nc(-c4ccc(Br)cc4)cs3)N=C2c2ccccc2)ccc1O`: the IC50 was 1.65 µM.

Take `O=C1/C(=C/C=C/c2ccco2)SC(=S)N1c1ccc(O)cc1`: the IC50 is less than 0.4 µM.

`COc1ccc(-n2c(N)c(-c3nc4ccccc4n3C)sc2=S)cc1` displayed an IC50 greater than 54 µM.

Compound `O=C1Oc2ccccc2C(=O)/C1=C/c1ccccc1O` displayed an IC50 of 3.62 µM.

Take `CCOC(=O)CC1=CSC2=NS(=O)(=O)CCN12`: the IC50 was greater than 54 µM.

In turn, `S=c1[nH]nc(-c2cc(-c3ccccc3)n[nH]2)n1/N=C/C(Br)=C/c1ccccc1` had an IC50 of 7.38 µM.

`COc1ccc(NC(=O)CN2C(=O)/C(=C3\SC(=S)N(C4CCS(=O)(=O)C4)C3=O)c3ccccc32)cc1` (centres undefined) yielded an IC50 of 2.54 µM.

`COc1ccc(O)c(N)c1` returned an IC50 of less than 0.4 µM.

`CSC1=N/C(=C\c2ccccc2F)C(=O)S1`: the IC50 was greater than 54 µM.

Compound `CC(C)CC1NC(=O)N(CC(=O)c2ccc3c(c2)OCCO3)C1=O` (centres undefined) came in with an IC50 greater than 54 µM.

Take `O=C(O)c1ccc2nc(-c3ccco3)c(-c3ccco3)nc2c1`: the IC50 was determined as 1.63 µM.

For the compound `O=C1NN(c2ccc(F)c(Cl)c2)C(=O)/C1=C\c1cccc(OC(=O)c2cccs2)c1`, the IC50 came out at 6.86 µM.

On to `COc1ccc(-c2ccc(/C=N/NC(=O)c3cccnc3)o2)c([N+](=O)[O-])c1`, for which the IC50 came to 4.32 µM.

In turn, `COc1cc(NCCC(=O)c2cccs2)c(OC)cc1Cl` yielded an IC50 greater than 54 µM.

With `O=C(/C=C/c1cccnc1)c1ccc(O)cc1`, the IC50 was greater than 54 µM.

Compound `Cc1ccc(-c2nn(-c3ccccc3)cc2/C=C2\SC(=S)N(CC(=O)O)C2=O)cc1` returned an IC50 of 4.63 µM.

In turn, `COc1ccc(/C=C2\C(=O)NC(=S)N2C(=O)c2ccc(C)cc2)cc1` registered an IC50 greater than 54 µM.

As for `Cc1c(O)ccc(/C=N/Nc2nc(-c3cccnc3)nc3ccccc23)c1O`, the IC50 was less than 0.4 µM.

Compound `CC(=O)N1C(=O)/C(=C2\SC(=S)N(NC(=O)c3ccc(O)cc3)C2=O)c2ccccc21` showed an IC50 of 1.55 µM.

Turning to `CC(/C=C1\SC(=S)N(NS(=O)(=O)c2ccc(C)cc2)C1=O)=C\c1ccccc1`, the IC50 is 5.66 µM.

`N=C1/C(=C\c2ccc(-c3ccc(C(=O)O)cc3)o2)C(=O)N=C2SC=C(c3ccccc3)N12` came in with an IC50 of less than 0.4 µM.

Regarding `COc1ccccc1C1=Nc2cccc3cccc(c23)N1`, the IC50 is greater than 54 µM.

The compound `O=C(Cn1c(=O)n(-c2ccccc2)c(=O)c2sccc21)N1CCCC1` showed an IC50 greater than 54 µM.

The compound `CCn1c(SCc2nc3sc(C(=O)O)c(C)c3c(=O)[nH]2)nc2ccccc21` showed an IC50 of 3.32 µM.

For `O=C(O)c1cc(N/N=C/c2ccc(N3CCOCC3)s2)ccc1Cl`, the IC50 was determined as 1.08 µM.

For `N#Cc1c2nc3ccccc3nc2n2cc(NC(=O)c3ccc(F)cc3)ccc12`, the IC50 is less than 0.4 µM.

Regarding `O=c1c(O)cccc2cc(O)c(O)c(O)c12`, the IC50 is less than 0.4 µM.

Turning to `Nc1cc2nc[nH]c2cc1N`, the IC50 came to 52.8 µM.

In the case of `CCOC(=O)C1=C(O)c2ccccc2C(=O)/C1=C\c1ccc(CC)cc1`, the IC50 was less than 0.4 µM.

Turning to `Cc1ccc(NC(=O)CSc2nnc(-c3ccco3)c(-c3ccco3)n2)cc1`, the IC50 was found to be 3.29 µM.

Consider `O=C(O)CCn1cc(C=C2C(=O)NC(=S)NC2=O)c(-c2cc3ccccc3oc2=O)n1`, for which the IC50 is 3.08 µM.

`Nc1ccc(O)c2c1C(=O)c1ccccc1C2=O` had an IC50 of 1.88 µM.

In turn, `O=C(NCc1ccccc1)c1ccc2nc(-c3ccco3)c(-c3ccco3)nc2c1` displayed an IC50 of 2.3 µM.

For the compound `NC1=NC(=O)/C(=C/c2cn(CCC(=O)O)nc2-c2ccc(Cl)cc2)S1`, the IC50 turned out to be 5.91 µM.

For `COc1cnn(-c2ccc(Br)cc2)c(=O)c1SCc1ccccc1`, the IC50 was greater than 54 µM.

On to `COc1ccccc1C1C2=C(N=c3s/c(=C/c4cccc(OCC(=O)O)c4)c(=O)n31)c1ccccc1CC2` (centres undefined), for which the IC50 turned out to be 2.15 µM.

Compound `O=C(O)c1ccc(Nc2nc(-c3cc4ccccc4oc3=O)cs2)cc1O` gave an IC50 of 5.36 µM.

With `COc1ccc2nc(Nc3sc4c(c3C(N)=O)CCCC4)sc2c1`, the IC50 is less than 0.4 µM.

`O=C(CSc1nnc(SCc2ccccc2)s1)N/N=C/C=C/c1ccco1` came in with an IC50 of 4.87 µM.

The compound `NC(=O)c1c(Nc2nc3c(F)cccc3s2)sc2c1CCCC2` displayed an IC50 of less than 0.4 µM.

`Cc1ccc(OCCCC(=O)Nc2ccccc2C(F)(F)F)cc1` returned an IC50 of 43.9 µM.

Take `CN(C)c1ccc(NC(=O)c2cn(-c3ccccc3)nc2-c2cccs2)cc1`: the IC50 was greater than 54 µM.

The compound `COc1cc2cc3c(N)c(C(=O)Nc4sc(C)c(C)c4C#N)sc3nc2cc1OC` gave an IC50 of 1.07 µM.

Turning to `CS(=O)(=O)C1=NSC2=NC(=O)/C(=C\c3cccn3-c3ccccc3Cl)C(=N)N21`, the IC50 came to 5.59 µM.

With `CC1=C(C#N)C(=O)NC(=O)/C1=C\c1ccc(-c2ccc(C)cc2[N+](=O)[O-])o1`, the IC50 was less than 0.4 µM.

In turn, `O=Cc1[nH]c2ccccc2c1N(C(=O)CCl)c1ccc([N+](=O)[O-])cc1` returned an IC50 greater than 54 µM.

In the case of `O=C(O)CCCCCN1C(=O)/C(=C\c2ccc(-c3ccc(Cl)cc3)o2)SC1=S`, the IC50 came to 1.36 µM.

Regarding `O=C(O)CSc1cc(C(=O)c2ccccc2O)cn2c(=O)c3c(-c4ccccc4)csc3nc12`, the IC50 came out at 5.71 µM.

`COc1cccc(C(Nc2ccccn2)c2oc(CO)cc(=O)c2O)c1` (centres undefined) showed an IC50 of less than 0.4 µM.

`Cc1cc(NC(=O)Cc2cccs2)no1` came in with an IC50 of less than 0.4 µM.

For `Cc1cc(/C=N/n2c(COc3ccccc3)nc3ccccc3c2=O)c(O)c([N+](=O)[O-])c1`, the IC50 amounted to 1.56 µM.

On to `O=C(C1=C[C@@H](c2ccc(C(F)(F)F)cc2)C[C@@H](OCc2ccc(CO)cc2)O1)N1CCN(Cc2ccccc2)CC1`, for which the IC50 was greater than 54 µM.

In turn, `O=[N+]([O-])c1cccc(N/N=C/c2cc([N+](=O)[O-])ccc2O)c1` yielded an IC50 of 0.428 µM.

`NC(=O)C1CCN(C2=C(Cl)C(=O)c3ccccc3C2=O)CC1` had an IC50 of 48.2 µM.

The compound `C=C(C)C(=O)Nc1cccc(C2=NOC3(C2)C[C@@H](C(N)=O)N(C(=O)C(=C)C)C3)c1` (some centres undefined) yielded an IC50 greater than 54 µM.
